Test system: not listed separately
Experiment: Parallel Artificial Membrane Permeability Assay (PAMPA)
Format: in vitro ADME
Conditions: 200 uM test compound, 4 hr
Protocol: Parallel Artificial Membrane Permeability Assay (PAMPA). 5 uL of 1% lecithin (VWR 0579) dissolved in n-dodecane (Sigma Aldrich D221104) was applied to each well of a MultiScreen IP PAMPA filter plate (Millipore MAIPSWU10) and allowed to equilibrate for 5 minutes. 300 uL of PBS was added to the acceptor plate and 150 uL of 200 uM test compound dissolved in PBS and 30% ethanol was added to the donor wells before incubating the donor plate in the acceptor plate for 4 hr at 500 rpm. 100 uL was sampled from the donor and acceptor wells and the concentrations were measured by liquid chromatography-mass spectrometry (SCIEX 4500) or UV-VIS plate reader (BMG).

Row | Structure (SMILES) | PAMPA: P_app pH 7.4
1 | CNC(=O)c1ncc2c(-c3ccccc3)nn(-c3ccc(F)cc3)c2n1 [Compound 246] | >50 ×10e−6 cm/sec
2 | CNc1nc(=O)n(-c2nc(-c3cccc(Cl)c3)oc2-c2ccc(Cl)c(F)c2)cc1F [Compound 1] | >50.0 ×10e−6 cm/sec
3 | CCn1nc(-c2ccccc2)c2cnc(NC(C)=O)nc21 [Compound 277] | >50 ×10e−6 cm/sec
4 | CCc1ccccc1-c1nn(-c2ccc(F)cc2)c2nc(C(=O)NC)ncc12 [Compound 245] | >50 ×10e−6 cm/sec
5 | CC(=O)Nc1ncc2c(-c3ccccc3)nn(Cc3ccccn3)c2n1 [Compound 278] | >50 ×10e−6 cm/sec
6 | CC(=O)Nc1ncc2c(-c3ccccc3C)nn(Cc3ccccc3)c2n1 [Compound 266] | >50 ×10e−6 cm/sec
7 | CC(=O)Nc1ncc2c(-c3ccccc3)nn(CC3CCCCC3)c2n1 [Compound 280] | 19.5 ×10e−6 cm/sec
8 | CNC(=O)c1ncc2c(-c3ccc(F)cc3)nn(Cc3ccccc3)c2n1 [Compound 250] | >50 ×10e−6 cm/sec
9 | CNC(=O)c1ncc2c(-c3cc(F)cc(F)c3)nn(Cc3ccccc3)c2n1 [Compound 252] | >50 ×10e−6 cm/sec

Biological target: T1, YFP-tagged 0N4R-Tau P301S aggregates seeded with 416-AD11A lysate (Homo sapiens, UniProt P10636, P618S)
T1 construct: C-terminally YFP-tagged full length 0N4R-Tau; expressed in transfected cells
T1 sequence (P10636 1-383 isoform P10636-6 P243S): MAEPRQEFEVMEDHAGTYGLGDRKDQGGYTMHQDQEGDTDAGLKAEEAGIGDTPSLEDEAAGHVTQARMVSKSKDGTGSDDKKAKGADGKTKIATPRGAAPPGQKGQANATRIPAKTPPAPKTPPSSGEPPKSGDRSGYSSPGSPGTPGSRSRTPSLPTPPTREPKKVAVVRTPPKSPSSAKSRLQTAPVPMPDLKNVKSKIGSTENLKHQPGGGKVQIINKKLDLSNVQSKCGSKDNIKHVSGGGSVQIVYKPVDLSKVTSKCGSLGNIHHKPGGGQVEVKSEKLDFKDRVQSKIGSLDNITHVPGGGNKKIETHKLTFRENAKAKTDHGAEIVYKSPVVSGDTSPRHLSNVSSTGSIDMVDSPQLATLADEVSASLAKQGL
Experiment: Tau-AD high throughput screening (counter screen) in T24 cells
Format: cell-based
Conditions: T24 cells seeded with 416-AD11A lysate
Protocol: A fragment of the Middle Tempral Gyrus (MTG) from Alzheimer's Disease (AD) patient 2217 was resuspended in 9 volumes of PBS (ml/g of brain) and homogenized 3×12 seconds using a probe homogenizer (Thomas Scientific) with disposable Omni Tip plastic homogenizing probes (Thomas Scinetific Cat No 3409Y77) to generate a 10% brain homogenate (10% AD11-BH). The 10% AD11-BH was clarified of insoluble debris by centrifugation at 800×g for 5 minutes. The resulting supernatant was collected and the protein concentration of this clarified BH (AD11-CBH) was determined by bicinchoninic acid assay (BCA) (Thermo Fisher Cat No. 23227). HEK293 cells stably expressing a C-terminally Clover-tagged truncated 4R-Tau^243-382 transgene containing the P301L and V337M mutations and a C-terminally Ruby-tagged truncated 3R-Tau^243-382 transgene containing the L266V and V337M mutations (128/139 cells) were transfected with the AD11-CBH using lipofectamine 2000 (LF2K) (Thermo Fisher Cat No. 11668500). Briefly, 0.32 μl of LF2K were diluted in 5 μl Opti-MEM (Thermo Scientific Cat No 31985070) per well of a 384-well plate and incubated for 5 min at room temperature (RT). This mixture was added to 0.32 μg of AD11-CBH diluted in 5 μl of PBS per well of a 384-well plate and vortex briefly. The transfection mixture was incubated at room temperature for 90 min. The transfection complexes were subsequently added to a single well of a 384-well plate containing 3500 128/139 cells. After 3 days the cells were harvested, counted and plated at a density of 1 cell/well in a 96-well plate. A clonal cell line containing Clover and Ruby positive Tau aggregates was selected and termed 416-AD11A cells. Following the expansion of these 416-AD11A cells, a cell lysate was prepared by freeze/thaw. The cells from a confluent T175 flask were harvested in 1 ml of PBS containing 1× protease inhibitor cocktail by scraping. The cell suspension was subjected to 4 cycles of freezing in liquid nitrogen for 5 minutes followed by thawing at 37° C. for 5 minutes. The resulting cell lysate was centrifuged at 2000 RPM for 10 minutes to remove the cell debris and the protein concentration of the resulting 416-AD11A lysate was determined by BCA assay and aliquots frozen for future use.
HEK293 cells stably expressing C-terminally YFP-tagged full length 0N4R-Tau carrying a P301S mutation (T24 cells) are plated at a density of 4000 cells per well of a 384-well black walled, clear bottom plate (Greiner Cat No 5678-1091Q) in 60 μl of complete DMEM (DMEM (Corning Cat No 10-013-CV), 10% FBS (VWR Cat No 97068-085, 0.5% Penicilin/streptomycin (Gibco Cat No 15140-122)) containing 0.1 μg/ml Hoechst Dye (Thermo Scientific Cat No H3570). Transfection complexes are prepared by diluting 0.15 μg of 416-AD11A lysate or HEK lysate in 5 μl of PBS per well to be transfected and 0.15 μl of Lipofectamine 2000 (LF2K) (ThermoFisher Cat No 11668500) in 5 μl of Opti-MEM per well to be transfected in separate tubes. The pre-diluted 416-AD11A or HEK lysates and LF2K are subsequently mixed and allowed to incubate for 90 minutes at RT. A 10 μl aliquot of the 416-AD11A or HEK transfection complexes is added to the appropriate wells of the 384-well plate containing the T24 cells using the Bravo liquid handling platform (Agilent). Wells A23-P24 of the 384-well plate are transfected with HEK lysate to act as a reference point for spontaneous aggregation of 0N4R^P301S and for transfection related toxicity. The dilution of test compounds is performed using the Bravo liquid handling platform (Agilent). The control is DMSO in the absence of any test compound. Briefly, 1 μl of each test compound (5 mM stock) in the 384-well test plate was transferred to a 384-well plate (Greiner Cat No 781280) containing 61.5 μl of complete DMEM to generate a working stock of compounds at 80 μM. […]

Row | Structure (SMILES) | AD Tau Aggregates (% control)
10 | CNC(=O)c1ncc2c(-c3ccccc3)nn(-c3ccc(F)cc3)c2n1 [Compound 246] | 120 % control
11 | CNC(=O)c1ncc2c(-c3ccc(F)cc3)nn(Cc3ccc(F)cc3)c2n1 [Compound 261] | 87 % control
12 | COC(=O)Nc1ncc2c(-c3ccccc3)nn(-c3ccccc3)c2n1 [Compound 274] | 94 % control
13 | CNC(=O)c1ncc2c(-c3ccccc3Cl)nn(-c3ccc(F)cc3)c2n1 [Compound 244] | 100 % control
14 | CNC(=O)c1ncc2c(-c3ccc(F)cc3)nn(CC3CCCCC3)c2n1 [Compound 258] | 110 % control
15 | CCc1ccccc1-c1nn(-c2ccc(F)cc2)c2nc(C(=O)NC)ncc12 [Compound 245] | 120 % control
16 | Cc1ccn(-c2nc(-n3cc4ccn(C(F)(F)F)c4nc3=O)c(-c3ccc(F)cc3)o2)n1 [Compound 241] | 98 % control
17 | CNC(=O)c1ncc2c(-c3ccc(F)cc3)nn(Cc3ccnc(F)c3)c2n1 [Compound 259] | 99 % control
18 | CNC(=O)c1ncc2c(-c3cccc4c3OC(F)(F)O4)nn(Cc3ccccc3)c2n1 [Compound 254] | 100 % control
19 | CC(=O)Nc1ncc2c(-c3ccccc3)nn(Cc3cncc(F)c3)c2n1 [Compound 267] | 91 % control
20 | O=c1nc2c(ccn2C(F)(F)F)cn1-c1nc(N2Cc3ccccc3C2)oc1-c1ccc(F)cc1 [Compound 242] | 99 % control
21 | CNC(=O)c1ncc2c(-c3cc4c(cnn4C)cc3F)nn(Cc3ccccc3)c2n1 [Compound 253] | 96 % control
22 | CC(=O)Nc1ncc2c(-c3ccccc3)nn(Cc3ccncc3)c2n1 [Compound 279] | 92 % control
23 | CC(=O)Nc1ncc2c(-c3ccccc3)nn(C(C)c3ccccc3)c2n1 (stereo not drawn) [Compound 265] | 110 % control
24 | CNC(=O)c1ncc2c(-c3ccccc3)nn(Cc3ccccc3)c2n1 [Compound 248] | 95 % control
25 | CC(=O)Nc1ncc2c(-c3ccccc3C)nn(Cc3ccccc3)c2n1 [Compound 266] | 98 % control
26 | Cc1ccnn1-c1nc(-n2cc3ccn(C(F)(F)F)c3nc2=O)c(-c2ccc(F)cc2)o1 [Compound 240] | 95 % control
27 | Cc1cc(-c2nc(-n3cc4ccn(C5CC5)c4nc3=O)c(-c3ccc(F)c(F)c3)o2)ncc1F [Compound 234] | 85 % control
28 | CC(=O)Nc1ncc2c(-c3ccccc3)nn(CC3CCCCC3)c2n1 [Compound 280] | 90 % control
29 | CCC(=O)Nc1ncc2c(-c3ccccc3)nn(Cc3ccc(OC)cc3)c2n1 [Compound 269] | 100 % control
30 | CNC(=O)c1ncc2c(-c3ccc(F)cc3)nn(Cc3cccc(F)c3)c2n1 [Compound 260] | 95 % control

From patent US20240199604A1, “SUPRAMOLECULAR POLYMER THERAPEUTICS AND DIAGNOSTICS” (The Regents of the University of California, priority 2022, published 2024)
